Measurements published in BigSolDB 2.1.

CCS(=O)(=O)O.COC(=O)c1ccc2c(C(=Nc3ccc(N(C)C(=O)CN4CCN(C)CC4)cc3)c3ccccc3)c(O)[nH]c2c1
solubility (mole fraction) (in DMAc, 278.15 K): 0.000745
solubility (mole fraction) (in DMAc, 283.15 K): 0.000878
solubility (mole fraction) (in DMAc, 288.15 K): 0.0011
solubility (mole fraction) (in DMAc, 293.15 K): 0.00129
solubility (mole fraction) (in DMAc, 298.15 K): 0.00156
solubility (mole fraction) (in DMAc, 303.15 K): 0.00186
solubility (mole fraction) (in DMAc, 308.15 K): 0.00214
solubility (mole fraction) (in DMAc, 313.15 K): 0.00258
solubility (mole fraction) (in DMAc, 318.15 K): 0.00285
solubility (mole fraction) (in DMAc, 323.15 K): 0.00316
solubility (mole fraction) (in DMF, 278.15 K): 0.000994
solubility (mole fraction) (in DMF, 283.15 K): 0.00129
solubility (mole fraction) (in DMF, 288.15 K): 0.00145
solubility (mole fraction) (in DMF, 293.15 K): 0.00165
solubility (mole fraction) (in DMF, 298.15 K): 0.00182
solubility (mole fraction) (in DMF, 303.15 K): 0.00206
solubility (mole fraction) (in DMF, 308.15 K): 0.00239
solubility (mole fraction) (in DMF, 313.15 K): 0.00271
solubility (mole fraction) (in DMF, 318.15 K): 0.00304
solubility (mole fraction) (in DMF, 323.15 K): 0.00336
solubility (mole fraction) (in acetone, 278.15 K): 3.21e-06
solubility (mole fraction) (in acetone, 283.15 K): 4.13e-06
solubility (mole fraction) (in acetone, 288.15 K): 4.97e-06
solubility (mole fraction) (in acetone, 293.15 K): 5.92e-06
solubility (mole fraction) (in acetone, 298.15 K): 6.97e-06
solubility (mole fraction) (in acetone, 303.15 K): 8.32e-06
solubility (mole fraction) (in acetone, 308.15 K): 9.74e-06
solubility (mole fraction) (in acetone, 313.15 K): 1.08e-05
solubility (mole fraction) (in acetone, 318.15 K): 1.3e-05
solubility (mole fraction) (in acetone, 323.15 K): 1.62e-05
solubility (mole fraction) (in acetonitrile, 278.15 K): 9.42e-06
solubility (mole fraction) (in acetonitrile, 283.15 K): 1.42e-05
solubility (mole fraction) (in acetonitrile, 288.15 K): 1.75e-05
solubility (mole fraction) (in acetonitrile, 293.15 K): 2.17e-05
solubility (mole fraction) (in acetonitrile, 298.15 K): 2.89e-05
solubility (mole fraction) (in acetonitrile, 303.15 K): 3.83e-05
solubility (mole fraction) (in acetonitrile, 308.15 K): 4.28e-05
solubility (mole fraction) (in acetonitrile, 313.15 K): 5.13e-05
solubility (mole fraction) (in acetonitrile, 318.15 K): 6.02e-05
solubility (mole fraction) (in acetonitrile, 323.15 K): 6.85e-05
solubility (mole fraction) (in dichloromethane, 278.15 K): 0.000125
solubility (mole fraction) (in dichloromethane, 283.15 K): 0.000148
solubility (mole fraction) (in dichloromethane, 288.15 K): 0.000161
solubility (mole fraction) (in dichloromethane, 293.15 K): 0.000175
solubility (mole fraction) (in dichloromethane, 298.15 K): 0.000199
solubility (mole fraction) (in dichloromethane, 303.15 K): 0.00022
solubility (mole fraction) (in dichloromethane, 308.15 K): 0.00025
solubility (mole fraction) (in ethanol, 278.15 K): 0.00015
solubility (mole fraction) (in ethanol, 283.15 K): 0.000179
solubility (mole fraction) (in ethanol, 288.15 K): 0.000214
solubility (mole fraction) (in ethanol, 293.15 K): 0.000253
solubility (mole fraction) (in ethanol, 298.15 K): 0.000298
solubility (mole fraction) (in ethanol, 303.15 K): 0.00035
solubility (mole fraction) (in ethanol, 308.15 K): 0.0004
solubility (mole fraction) (in ethanol, 313.15 K): 0.000473
solubility (mole fraction) (in ethanol, 318.15 K): 0.000546
solubility (mole fraction) (in ethanol, 323.15 K): 0.000627
solubility (mole fraction) (in isopropanol, 278.15 K): 1.43e-05
solubility (mole fraction) (in isopropanol, 283.15 K): 1.93e-05
solubility (mole fraction) (in isopropanol, 288.15 K): 2.57e-05
solubility (mole fraction) (in isopropanol, 293.15 K): 3.39e-05
solubility (mole fraction) (in isopropanol, 298.15 K): 4.44e-05
solubility (mole fraction) (in isopropanol, 303.15 K): 5.75e-05
solubility (mole fraction) (in isopropanol, 308.15 K): 7.4e-05
solubility (mole fraction) (in isopropanol, 313.15 K): 0.0001
solubility (mole fraction) (in isopropanol, 318.15 K): 0.000118
solubility (mole fraction) (in isopropanol, 323.15 K): 0.00015
solubility (mole fraction) (in methanol, 278.15 K): 0.00126
solubility (mole fraction) (in methanol, 283.15 K): 0.00149
solubility (mole fraction) (in methanol, 288.15 K): 0.00169
solubility (mole fraction) (in methanol, 293.15 K): 0.00203
solubility (mole fraction) (in methanol, 298.15 K): 0.00238
solubility (mole fraction) (in methanol, 303.15 K): 0.00281
solubility (mole fraction) (in methanol, 308.15 K): 0.00341
solubility (mole fraction) (in methanol, 313.15 K): 0.00413
solubility (mole fraction) (in methanol, 318.15 K): 0.00467
solubility (mole fraction) (in methanol, 323.15 K): 0.00524
solubility (mole fraction) (in n-butanol, 278.15 K): 1.21e-05
solubility (mole fraction) (in n-butanol, 283.15 K): 1.44e-05
solubility (mole fraction) (in n-butanol, 288.15 K): 1.82e-05
solubility (mole fraction) (in n-butanol, 293.15 K): 2.33e-05
solubility (mole fraction) (in n-butanol, 298.15 K): 2.7e-05
solubility (mole fraction) (in n-butanol, 303.15 K): 3.54e-05
solubility (mole fraction) (in n-butanol, 308.15 K): 4.5e-05
solubility (mole fraction) (in n-butanol, 313.15 K): 5.17e-05
solubility (mole fraction) (in n-butanol, 318.15 K): 7.26e-05
solubility (mole fraction) (in n-butanol, 323.15 K): 8.92e-05
solubility (mole fraction) (in n-propanol, 278.15 K): 4.29e-05
solubility (mole fraction) (in n-propanol, 283.15 K): 6.92e-05
solubility (mole fraction) (in n-propanol, 288.15 K): 8.1e-05
solubility (mole fraction) (in n-propanol, 293.15 K): 0.000103
solubility (mole fraction) (in n-propanol, 298.15 K): 0.000131
solubility (mole fraction) (in n-propanol, 303.15 K): 0.000156
solubility (mole fraction) (in n-propanol, 308.15 K): 0.000207
solubility (mole fraction) (in n-propanol, 313.15 K): 0.000241
solubility (mole fraction) (in n-propanol, 318.15 K): 0.000317
solubility (mole fraction) (in n-propanol, 323.15 K): 0.000384
